Assay results as given in patent US6441049B2, “Method of treating neurodegenerative disorders via inhibition of amyloid beta peptide binding” (Ortho-McNeil Pharmaceutical, Inc., priority 1998, dated 2002).

Tests used:
[1] = system: acetylcholine release from guinea pig hippocampus synaptosomes; assay: K+-evoked 3H-acetylcholine release from synaptosomes, effect of Aβs; type: cell-based
Experimental: Synaptosomes from guinea pig hippocampus were incubated with 0.1 μM ^3H-choline and then subjected to repeated washes to remove unincorporated ^3H-choline. The synaptosomes were treated with 65 mM K^+ for 30 seconds to elicit 3H-acetylcholine release.

[2] = target: 206-216 stretch of the human α7 nAChR (Homo sapiens, UniProt P36544)
Experimental: A 2-5 ug quantity of the 11 amino acid peptide comprised of the 206-216 stretch of the α7 nAChR (N-Ac, C(O)NH2) are added to a 96-well microtiter plate in 50 mL 10 mM HEPES, pH 7.4, or any buffer 50 ul. ^125I-β-amyloid1-40 (2000 Ci/mmol, 50 pM) was added to the wells in the presence and absence of inhibitors (1 uM to 10 uM) dissolved in 1 uL of 30% or 100% DMSO. Unbound ligands were removed and bound radioactivity was measured using a Microbeta liquid scintillation counter.

Aβ aggregation [3] = target: T1, Aβ aggregation (Homo sapiens, UniProt P05067); assay: Aβ aggregation assay on Synthaloid plates with labelled Aβ1-40; type: biochemical
T1 construct: 100 nM of fluo-Aβ1-40 in 100 μl of each well of the 96-well Synthaloid plate; purchased Amersham Pharmacia Biotech (125I-Aβ1-40); Advanced Bioconcepts (fluo-Aβ1-40)
T1 sequence (P05067 672-711 limits assumed): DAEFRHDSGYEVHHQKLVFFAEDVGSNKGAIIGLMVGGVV
Experimental: Aβs are known to form aggregates leading to the formation of amyloid plaques that are characteristic of Alzheimer's disease. […] We have validated this aggregation assay using both ^125I-Aβ1-40 and fluo-Aβ1-40 in a buffer containing 50 mM HEPES, pH 7.4, 0.1% BSA, 10% FCS and protease inhibitors. About 500 pM of ^125I-Aβ1-40 or 100 nM of fluo-Aβ1-40 in 100 μl of each well of the 96-well Synthaloid plate was allowed to incubate for 2.5 hr at room temperature in the presence or absence of inhibitors. At the end of the incubation, unbound protein in the wells was removed by three washes using the above buffer. The amount of bound protein which represented Aβ aggregation was measured either by scintillation counting or fluorescence measurements.

Aβ aggregation [4] = target: T1, Aβ aggregation; assay: as above; type: biochemical; remark: listed apart in the source
[5] = target: T2, alpha-7 nAChRs (Homo sapiens); assay: 125I-Aβ1-40 binding to alpha-7 nAChRs (SK-N-MC cell membranes) on wheat germ agglutinin SPA beads; conditions: read-out: IC50, inhibition of 125I-Aβ1-40 binding to SK-N-MC cells
T2 construct: alpha-7 nAChR contained SK-N-MC cell membranes were immobilized; endogenous in cells; host or cells: SK-N-MC cell membranes
T2 sequence (P05067 672-711): as the sequence (P05067 672-711 limits assumed) above
Experimental: Alpha-7 nAChRs were immobilized on wheat germ agglutinin coupled yittrium SPA beads and allowed to incubate with ^125I-Aβ1-40 in the presence of various concentrations of cold Aβ1-40 or Aβ1-42.

[6] = system: Aβ1-42 mediated inhibition of ACh release in rat cortical synaptosomes; assay: Amelioration of the Aβ1-42 mediated inhibition of ACh release in rat cortical synaptosomes; type: cell-based
[7] = target: α7 subtype nAChR homomers (Homo sapiens, UniProt P36544); conditions: cited from earlier work
Chain of α7 subtype nAChR homomers (P36544 23-502): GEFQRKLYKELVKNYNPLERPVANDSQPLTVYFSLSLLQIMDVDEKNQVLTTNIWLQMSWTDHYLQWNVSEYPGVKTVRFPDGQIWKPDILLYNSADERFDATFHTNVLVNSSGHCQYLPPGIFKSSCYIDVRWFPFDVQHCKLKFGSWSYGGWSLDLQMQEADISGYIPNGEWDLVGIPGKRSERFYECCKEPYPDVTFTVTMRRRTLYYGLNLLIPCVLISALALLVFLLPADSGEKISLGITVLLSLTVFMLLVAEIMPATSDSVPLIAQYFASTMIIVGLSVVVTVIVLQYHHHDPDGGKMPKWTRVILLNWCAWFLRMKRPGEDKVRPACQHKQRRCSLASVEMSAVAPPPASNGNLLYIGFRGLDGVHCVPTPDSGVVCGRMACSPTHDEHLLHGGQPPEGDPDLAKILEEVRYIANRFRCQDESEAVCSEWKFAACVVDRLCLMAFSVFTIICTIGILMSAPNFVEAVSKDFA

Molecule | Inhibition of ligand binding to the 206-216 peptide [2] | Amelioration of the Aβ1-42 Meditated Inhibition of ACh Release in Rat Cortical Synaptosomes (%) ([6]; at 1 μM) | Amelioration of the Aβ1-42 Meditated Inhibition of ACh Release in Rat Cortical Synaptosomes (%) ([6]; at 10 μM) | other results
CCCN(CCC)[C@@H]1Cc2c(O)ccc(O)c2C[C@H]1C (racemic) [Compound 9, 5,8-Dihydroxy-trans-2-di(N-propylamino)-3-methyl-1,2,3,4-tetrahydronaphthalene] | inhibited |  |  | Effect on acetylcholine release of Aβ after pretreatment with compound ([1]; 10 nM compound and 100 pM of either Aβ1-40 and Aβ1-42 prior to K+ stimulation): no effect on acetylcholine release; % ACh Release at 10 μM ([1]; 10 μM): 94%; IC50 ([1]; Cavia porcellus, read-out: ACh Release (IC50)): 100 nM; % α7 nAChR 206-216 Binding ([2]; […], inhibitors 1 uM to 10 uM): 94%; inhibition at 10 µM (Aβ aggregation [3]; 10 μM, read-out: % Inh Agg. (conc μM)): > 90%; IC50 (Aβ aggregation [3]; Synthaloid plate, 2.5 hr, room temperature, read-out: IC50, inhibition of Aβ aggregation): 10 nM; Effect of prolonged incubation on amyloid aggregates (time course) (Aβ aggregation [4]): resulted in disaggregation; IC50 [5]: 0.3 nM
Ac-SERFYECCKEP-NH2 [human alpha-7 nAChR206-216 Ac-SERFYECCKEP-NH2] (cysteine pairing not given here) | inhibited | 77% at 1 μM | 81% at 10 μM | 
Ac-YECC-NH2 [human alpha-7 nAChR210-213] |  | 59% at 1 μM | 72% at 10 μM | 
SERFYECCKEP [206-216 peptide without Ac and NH2 end groups] |  | 10% at 1 μM | 22% at 10 μM | 
α-bungarotoxin [reference compound] | inhibited |  |  | Kd [7]: 0.65 to 1.7 nM
